Converted amounts (≈) assume the structure as drawn. Read-outs that look alike come from different tables or passages of the source.
Legend:
[1] = system: Plasmodium falciparum, chloroquine-sensitive strain NF54; assay: activity against P. falciparum in vitro, strain NF54; assay type: cell-based; conditions: Plasmodium falciparum; chloroquine-sensitive strain NF54; 48 h-72 h; read-out: IC50 (50% growth inhibition)
Protocol: (§1) Test method for the determination of the activity against P. falciparum in vitro
(§2) The preparations of the present invention were tested on intraerythrocytary stages of P. falciparum from asynchronous cultures according to the method of Desjardin et al. (Desjardins, R. E. et al: Quantitative assessment of antimalarial activity in vitro by a semiautomated microdilution technique. Antimicrob. Agents Chemother. 16, 710-718, (1979)).
(§3) The culture medium consisted of RPMI 1640 with the addition of 25 mM HEPES, 25 mM NaHCO3, […] neomycin and 10% human serum (A^+). Human-A^+ erythrocytes were used as the P. falciparum host cells. The parasites were maintained at 37° C. in an atmosphere of 3% O2, 4% CO2, 93% N2 and at 95% relative humidity.
(§4) In order to determine the activity, the preparations were dissolved in DMSO, pre-diluted in the culture medium to a suitable starting concentration and subsequently titrated-out into microtitre plates in the 2nd stage over 6-7 steps. After the addition of the parasite culture (0.7% parasitemia in 2.5% erythrocyte suspension), the test plates were incubated under the conditions given above for 48 h-72 h. The parasite growth in the different preparation concentrations was determined using [G-^3 H]-hypoxanthin incorporation compared to untreated control cultures on the same test plates. The 50% growth inhibition (IC50) was calculated according to logit regression analysis from the resulting dosage-activity curve.
(§5) The preparations were tested on at least one chloroquine-resistant and one chloroquine-sensitive P. falciparum strain. Additional sensitive and resistant strains were also included for further characterization.
(§6) Table 1 below contains the IC50 values measured in vitro for the growth inhibition of chloroquine-sensitive and chloroquine-resistant strains of the human pathogenic Plasmodium falciparum.

[2] = system: Plasmodium falciparum, chloroquine-sensitive strain FCH5C2; assay: activity against P. falciparum in vitro, strain FCH5C2; assay type: cell-based; conditions: chloroquine-sensitive strain FCH5C2, 48 h-72 h, read-out: IC50 (50% growth inhibition)
Protocol: as §1, §2, §3, §4, §5, §6

[3] = system: Plasmodium falciparum, chloroquine-sensitive strain HB3; assay: activity against P. falciparum in vitro, strain HB3; assay type: cell-based; conditions: chloroquine-sensitive strain HB3, 48 h-72 h, read-out: IC50 (50% growth inhibition)
Protocol: as §1, §2, §3, §4, §5, §6

[4] = system: Plasmodium falciparum, chloroquine-resistant strain RFCR3; assay: activity against P. falciparum in vitro, strain RFCR3; assay type: cell-based; conditions: chloroquine-resistant strain RFCR3, 48 h-72 h, read-out: IC50 (50% growth inhibition)
Protocol: as §1, §2, §3, §4, §5, §6

[5] = system: Plasmodium falciparum, chloroquine-resistant strain ItG2 F6; assay: activity against P. falciparum in vitro, strain ItG2 F6; assay type: cell-based; conditions: chloroquine-resistant strain ItG2 F6, 48 h-72 h, read-out: IC50 (50% growth inhibition)
Protocol: as §1, §2, §3, §4, §5, §6

[6] = system: Plasmodium falciparum, chloroquine-resistant strain Indo; assay: activity against P. falciparum in vitro, strain Indo; assay type: cell-based; conditions: chloroquine-resistant strain Indo, 48 h-72 h, read-out: IC50 (50% growth inhibition)
Protocol: as §1, §2, §3, §4, §5, §6

[7] = system: Plasmodium falciparum, chloroquine-resistant strain K1; assay: activity against P. falciparum in vitro, strain K1; assay type: cell-based; conditions: Plasmodium falciparum; chloroquine-resistant strain K1; 48 h-72 h; read-out: IC50 (50% growth inhibition)
Protocol: as §1, §2, §3, §4, §5, §6

[8] = system: Plasmodium falciparum, chloroquine-resistant strain W2; assay: activity against P. falciparum in vitro, strain W2; assay type: cell-based; conditions: chloroquine-resistant strain W2, 48 h-72 h, read-out: IC50 (50% growth inhibition)
Protocol: as §1, §2, §3, §4, §5, §6

[9] = system: Plasmodium falciparum, chloroquine-resistant strain 7G8; assay: activity against P. falciparum in vitro, strain 7G8; assay type: cell-based; conditions: chloroquine-resistant strain 7G8, 48 h-72 h, read-out: IC50 (50% growth inhibition)
Protocol: as §1, §2, §3, §4, §5, §6

[10] = system: Plasmodium falciparum, chloroquine-resistant strain W2 Mef; assay: activity against P. falciparum in vitro, strain W2 Mef; assay type: cell-based; conditions: 48 h-72 h, read-out: IC50 (50% growth inhibition)
Protocol: as §1, §2, §3, §4, §5, §6

[11] = system: Plasmodium berghei (strain ANKA); assay: activity against Plasmodium berghei in vivo (infected mice); conditions: mice; for ED50: single administration po, dose reducing average erythrocyte infection rate by 50%, read-out: ED50 (po); for inhibition in vivo at 10 mg/kg: 48 hours after treatment (D+3)
Protocol: Test method for the determination of the activity against Plasmodium berghei in vivo
The preparations according to the present invention were tested on mice infected with malaria pathogens (Plasmodium berghei). Male albino mice (IBM:MORO(SPF), FUELLINSDORF) weighing about 25 g were used as the test animals. They were kept in climatized rooms at 21°-22° C. in groups of 5 animals per cage. They received ad libitum a diet feed with a low PABA content ("NAFAG FUTTER" No. 9009 PAB-45, PABA content 45 mg/kg) and drinking water. On the first day of the test (D0) the test animals were infected with Plasmodium berghei (strain ANKA). For this there was used heparinized blood of a donor mouse with about 30% parasitemia, which was diluted with physiological saline such that it contains 10^8 parasitized erythrocytes per ml. 0.2 ml of this suspension was injected intravenously (i.v.) into the mice to be treated and into the control mice. In untreated control animals the parasitemia normally reaches 30-40% on the third day after the infection (D+3) and the test animals die between days +5 and +7.
The substances to be tested were dissolved or suspended in distilled water or in a mixture of 7% Tween 80, 3% alcohol (96%) and water. Usually, 0.25 ml of this solution or suspension was administered once subcutaneously and perorally to groups of 5 test animals. Treatment was effected 24 hours after the infection. 10 control animals were treated in the same manner with solvent or suspension medium per test.
All substances were tested in a first test in a single dosage of 10 mg/kg. Only those substances which in this test (10 mg/kg) had shown a parasitaemia reduction of 90% were used for the titration.
48 hours after the treatment (D+3), blood smears were prepared from all animals using blood from tail veins and were stained with Giemsa. The average erythrocyte infection rate (parasitemia in %) in the control groups as well as in the groups which had been treated with the test compounds was determined by counting under a microscope. The difference in the average values of the infection rates of control group (100%) and treated groups was calculated and expressed as a percentage reduction (GI %). The ED50 or ED90 was determined mathematically by means of the JMP programme (nonlinear fit). The ED50 (ED90) in mg/kg is that dose which after single administration reduces the average erythrocyte infection rate by 50% (90%) in comparison to the control group.
Table 2 below contains data with respect to the activity measured against Plasmodium berghei in mice: GI % is the percentage reduction in the parasitemia after a single dose of 10 mg/kg of the test substance administered perorally (po) or subcutaneously (sc); ED50 and ED90 are the effective doses of the test substance administered perorally or subcutaneously.

[12] = system: Plasmodium falciparum, chloroquine-sensitive strain RFMEF3; assay: activity against P. falciparum in vitro, strain RFMEF3; assay type: cell-based; conditions: chloroquine-sensitive strain RFMEF3, 48 h-72 h, read-out: IC50 (50% growth inhibition)
Protocol: as §1, §2, §3, §4, §5, §6

[13] = system: Plasmodium falciparum, chloroquine-sensitive strain Ro7 3; assay: activity against P. falciparum in vitro, strain Ro7 3; assay type: cell-based; conditions: chloroquine-sensitive strain Ro7 3, 48 h-72 h, read-out: IC50 (50% growth inhibition)
Protocol: as §1, §2, §3, §4, §5, §6

[14] = single dose 10 mg/kg po, read-out: GI % at 10 mg/kg (po): percentage reduction in the parasitemia
[15] = single dose 10 mg/kg sc, read-out: GI % at 10 mg/kg (sc): percentage reduction in the parasitemia

Row | Structure (SMILES) | IC50 [1] [ng/mL] | IC50 [2] [ng/mL] | IC50 [3] [ng/mL] | IC50 [4] [ng/mL] | IC50 [5] [ng/mL] | IC50 [6] [ng/mL] | IC50 [7] [ng/mL] | IC50 [8] [ng/mL] | IC50 [9] [ng/mL] | IC50 [10] [ng/mL] | ED50 [11] [mg/kg] | inhibition in vivo at 10 mg/kg [11, 14] [%] | inhibition in vivo at 10 mg/kg [11, 15] [%] | IC50 [12] [ng/mL] | IC50 [13] [ng/mL]
1 | CN(C)CCNc1ccnc2cc(Cl)ccc12 [Example 5, N2-(7-Chloro-quinolin-4-yl)-N1,N1-dimethyl-ethane-1,2-diamine] | 4 (≈ 0.016 µM) | 9 (≈ 0.036 µM) | 6 (≈ 0.024 µM) | 6 (≈ 0.024 µM) | 4 (≈ 0.016 µM) | 4 (≈ 0.016 µM) | 7 (≈ 0.028 µM) | 7 (≈ 0.028 µM) | 7 (≈ 0.028 µM) | 9 (≈ 0.036 µM) | 3.3 | 99.5 | 99 | – | –
2 | CCN(CC)CCNc1ccnc2cc(Cl)ccc12 [Example 6, N2-(7-Chloro-quinolin-4-yl)-N1,N1-diethyl-ethane-1,2-diamine] | 5 (≈ 0.018 µM) | 8 (≈ 0.0288 µM) | 8 (≈ 0.0288 µM) | 8 (≈ 0.0288 µM) | 5 (≈ 0.018 µM) | 4 (≈ 0.0144 µM) | 9 (≈ 0.0324 µM) | 8 (≈ 0.0288 µM) | 9 (≈ 0.0324 µM) | – | 3.5 | 99 | 99 | – | –
3 | Clc1ccc2c(NCCN3CCCC3)ccnc2c1 [Example 7, (7-Chloro-quinolin-4-yl)-(2-pyrrolidin-1-yl-ethyl)-amine] | 4 (≈ 0.0145 µM) | 7 (≈ 0.0254 µM) | 6 (≈ 0.0218 µM) | 7 (≈ 0.0254 µM) | 5 (≈ 0.0181 µM) | 4 (≈ 0.0145 µM) | 8 (≈ 0.029 µM) | 7 (≈ 0.0254 µM) | 8 (≈ 0.029 µM) | 8 (≈ 0.029 µM) | – | – | – | – | –
4 | CN(C)CCCNc1ccnc2cc(Cl)ccc12 [Example 15, N3-(7-Chloro-quinolin-4-yl)-N1,N1-dimethyl-propane-1,3-diamine] | 2 (≈ 0.00758 µM) | 5 (≈ 0.019 µM) | 3 (≈ 0.0114 µM) | 5 (≈ 0.019 µM) | 3 (≈ 0.0114 µM) | 3 (≈ 0.0114 µM) | 6 (≈ 0.0227 µM) | 7 (≈ 0.0265 µM) | 7 (≈ 0.0265 µM) | 12 (≈ 0.0455 µM) | 2 | 99.8 | 99.9 | – | –
5 | CCN(CC)CCCNc1ccnc2cc(Cl)ccc12 [Example 16, N3-(7-Chloro-quinolin-4-yl)-N1,N1-diethyl-propane-1,3-diamine] | 3 (≈ 0.0103 µM) | 6 (≈ 0.0206 µM) | 5 (≈ 0.0171 µM) | 8 (≈ 0.0274 µM) | 5 (≈ 0.0171 µM) | 4 (≈ 0.0137 µM) | 9 (≈ 0.0308 µM) | 9 (≈ 0.0308 µM) | 9 (≈ 0.0308 µM) | – | 2 | 99.9 | 99.9 | – | –
6 | Clc1ccc2c(NCCCN3CCCC3)ccnc2c1 [Example 17, (7-Chloro-quinolin-4-yl)-(3-pyrrolidin-1-yl-propyl)-amine] | 3 (≈ 0.0104 µM) | 4 (≈ 0.0138 µM) | 6 (≈ 0.0207 µM) | 11 (≈ 0.038 µM) | 7 (≈ 0.0242 µM) | 7 (≈ 0.0242 µM) | 15 (≈ 0.0518 µM) | 14 (≈ 0.0483 µM) | 14 (≈ 0.0483 µM) | – | 4.6 | 95 | 99 | 8 (≈ 0.0276 µM) | 6 (≈ 0.0207 µM)
